Source: US20110093959A1, “CRYPTOTIS PARVA SCREENING MODEL FOR ANTIEMETIC POTENTIAL” (priority 2008, published 2011)

Legend:
Assay type in all cases: in vivo, Cryptotis parva
[1] = tested on: SP-induced emesis in the Least Shrew; assay: Antagonist interaction study against SP (50 mg/kg, i.p.)-induced emesis; settings: antagonist 10 mg/kg i.p., 30 min before SP 50 mg/kg i.p.
Source text: The present protocols were based upon preliminary studies as well as published findings in the Least Shrew. Darmani, 2001a; Darmani et al., 69 Pharmacol. Biochem. Behay. 239-49 (2001b). On the test day, the shrews were allowed to acclimate to the test laboratory for at least one hour prior to experimentation. To habituate the animals to the test environment, each shrew was randomly selected and transferred to a 20 cm×18 cm×21 cm clean clear plastic cage and offered four mealworms (Tenebrio sp.) 30 min prior to experimentation. […]
For the above drug interaction studies, different doses (i.p.) of either CP99,994 (0, 5, 10, and 20 mg/kg, n=10-14 shrews per group); L733060 (0, 5, 10, and 20 mg/kg, n=10-14 shrews per group), GR159897 (0 mg/kg and 20 mg/kg, n=8 per group) or SB218795 (0 or 20 mg/kg, n=7-8 per group) were administered to different groups of shrews 30 min prior to injection of an emetic dose (5 mg/kg, i.p.) of the NK1-receptor agonist GR73632. Emesis and scratchings were recorded for 30 min immediately following GR73632 administration as described above. […]
The data on the frequency of emesis and scratchings were analyzed by the Kruskal-Wallis (KW) nonparametric one-way analysis of variance (ANOVA) and post hoc analysis by Dunn's multiple comparisons test or Mann-Whitney test. […]

[2] = tested on: GR73632-induced emesis and scratching in the Least Shrew; assay: Antagonist interaction study against GR73632 (5 mg/kg, i.p.)-induced emesis and scratching
Source text: The present protocols were based upon preliminary studies as well as published findings in the Least Shrew. Darmani, 2001a; Darmani et al., 69 Pharmacol. Biochem. Behay. 239-49 (2001b). On the test day, the shrews were allowed to acclimate to the test laboratory for at least one hour prior to experimentation. To habituate the animals to the test environment, each shrew was randomly selected and transferred to a 20 cm×18 cm×21 cm clean clear plastic cage and offered four mealworms (Tenebrio sp.) 30 min prior to experimentation.
The latter doses of SP and GR73632 were chosen for subsequent antagonist interaction studies to pharmacologically characterize the role of NK1 receptors in the mediation of induced emesis by the use of: (1) two selective neurokinin NK1 receptor antagonists (CP99,994 and L733060) (Watson et al., 115 Br. J. Phramacol. 84-94 (1995); Guiard et al., 89 J. Neurochem. 54-63 (2004)); (2) an NK2 receptor antagonist (GR159897) (Beresford et al., 272 Eur. J. Pharmacol. 241-48 (1995)); and (3) an NK3 receptor antagonist (SB218795) (Salthun-Lassalle et al., 1995).
For the above drug interaction studies, different doses (i.p.) of either CP99,994 (0, 5, 10, and 20 mg/kg, n=10-14 shrews per group); L733060 (0, 5, 10, and 20 mg/kg, n=10-14 shrews per group), GR159897 (0 mg/kg and 20 mg/kg, n=8 per group) or SB218795 (0 or 20 mg/kg, n=7-8 per group) were administered to different groups of shrews 30 min prior to injection of an emetic dose (5 mg/kg, i.p.) of the NK1-receptor agonist GR73632. Emesis and scratchings were recorded for 30 min immediately following GR73632 administration as described above. The antiemetic effect of CP99,994 (0, 5, and 10 mg/kg, n=9-10 animals per group) was also investigated in a similar manner against SP (50 mg/kg, i.p.)-induced emesis.
The data on the frequency of emesis and scratchings were analyzed by the Kruskal-Wallis (KW) nonparametric one-way analysis of variance (ANOVA) and post hoc analysis by Dunn's multiple comparisons test or Mann-Whitney test. A P value of <0.05 was necessary to attain statistical significance. The incidence of emesis (number of shrews vomiting) was analyzed by the Fisher's exact test to determine whether there were differences between groups. When appropriate, pairwise comparisons were also made by this method. Two-way analysis of variance using the Kruskal-Wallis or Fisher's exact tests were initially utilized to respectively analyze the dose-response results of GR73632 on emesis and scratching behaviors, and percentage of shrews vomiting in saporin- and corresponding saline-pretreated control shrews. […] For some emesis data, the two-tailed Mann-Whitney test was used. The SP tissue concentration data were analyzed by a one-way ANOVA followed by Dunnett's t test as post hoc analysis. Fos-IR was quantified by counting immunopositive nuclei within each hemisection containing the region of interest (ROI). The number of nuclei was averaged across sections with the ROI for each animal, and the group mean and standard error obtained.

[3] = tested on: LTC4-induced emesis in the Least Shrew; assay: CysLT1 antagonists against leukotriene LTC4-induced emesis; settings: dose-dependent
Experimental: Emetic parameters were recorded for 30min post emetic injection.

Row | Structure (SMILES) | attenuation of the frequency of SP-induced emesis [1] | shrews protected from SP-induced emesis [1] | reduction in frequency of GR73632-induced emesis ([2]; antagonist 5 mg/kg i.p.) | reduction in percentage of shrews vomiting in response to GR73632 ([2]; antagonist 5 mg/kg i.p.) | reduction in frequency of GR73632-induced emesis ([2]; antagonist 10 mg/kg i.p.) | reduction in percentage of shrews vomiting in response to GR73632 ([2]; antagonist 10 mg/kg i.p.) | reduction in frequency of GR73632-induced emesis ([2]; antagonist 20 mg/kg i.p.) | reduction in percentage of shrews vomiting in response to GR73632 ([2]; antagonist 20 mg/kg i.p.) | reduction in the frequency of scratching ([2]; antagonist 5, 10, and 20 mg/kg, failed to attain significance) | onset of first emesis induced by GR73632 ([2]; at highest tested effective antiemetic doses) | prevention of LTC4-induced emesis [3]
1 | COc1ccccc1CN[C@H]1CCCN[C@H]1c1ccccc1 (relative stereo) [CP99,994, (2S, 3S)-Cis-3 (2-methoxybenzylamino-2-phenylpiperidine)] | 84% | 70% | 61% | 2.9% | 87% | 60% | 97% | 73% | up to 49% | only delayed the onset of first emesis | –
2 | O=C(Nc1cccc2c(=O)cc(-c3nnn[nH]3)oc12)c1ccc(OCCCCc2ccccc2)cc1 [Pranlucast, 4-Oxo-8-[(4-phenylbutoxy)benzoylamino]-2-(tetrazol-5-yl)-4H-1-benzopyran] | – | – | – | – | – | – | – | – | – | – | prevent LTC4-induced emesis completely
3 | COc1cc(C(=O)NS(=O)(=O)c2ccccc2C)ccc1Cc1cn(C)c2ccc(NC(=O)OC3CCCC3)cc12 [zafirlucast] | – | – | – | – | – | – | – | – | – | – | prevent LTC4-induced emesis completely
